Assay results: patent US6348309B1, “Process for inactivating viruses in blood and blood products” (priority 1989, dated 2002)
“Also recorded” adds a separate entry of the source.

Columns and labels:
[1] = tested on: Eastern equine encephalomyelitis (EEE) virus; conditions: cited from earlier work
[2] = 1 to 2 mg/kg of body weight; cited from earlier work
adenovirus = assay: Photodynamic treatment of adenovirus with pre-incubation in the dark, titrated on FL cells (Example 7); type: cell-based; conditions: TB instead of MB, same conditions

## Cc1cc2nc3ccc(N(C)C)cc3[s+]c2cc1N.[Cl-] [TB, toluidine blue]
[1]
  inactivation of EEE virus in plasma: effectively inactivated; also recorded: failed to inactivate the virus completely
[2]
  side effects in therapeutic use: without any significant side effects
adenovirus
  effect of photodynamic treatment on virus titer: not reduced
